Test results from patent US6362173B1, “Methods for treating psychosis associated with cocaine addiction with glucocorticoid receptor antagonists” (The Board of Trustees of the Leland Stanford Junior …, priority 1997, dated 2002).

Experiments:
[1] = biological target: T1, glucocorticoid (GR) receptor (Homo sapiens, UniProt P04150); details: cited from earlier work
T1 sequence (P04150 1-777): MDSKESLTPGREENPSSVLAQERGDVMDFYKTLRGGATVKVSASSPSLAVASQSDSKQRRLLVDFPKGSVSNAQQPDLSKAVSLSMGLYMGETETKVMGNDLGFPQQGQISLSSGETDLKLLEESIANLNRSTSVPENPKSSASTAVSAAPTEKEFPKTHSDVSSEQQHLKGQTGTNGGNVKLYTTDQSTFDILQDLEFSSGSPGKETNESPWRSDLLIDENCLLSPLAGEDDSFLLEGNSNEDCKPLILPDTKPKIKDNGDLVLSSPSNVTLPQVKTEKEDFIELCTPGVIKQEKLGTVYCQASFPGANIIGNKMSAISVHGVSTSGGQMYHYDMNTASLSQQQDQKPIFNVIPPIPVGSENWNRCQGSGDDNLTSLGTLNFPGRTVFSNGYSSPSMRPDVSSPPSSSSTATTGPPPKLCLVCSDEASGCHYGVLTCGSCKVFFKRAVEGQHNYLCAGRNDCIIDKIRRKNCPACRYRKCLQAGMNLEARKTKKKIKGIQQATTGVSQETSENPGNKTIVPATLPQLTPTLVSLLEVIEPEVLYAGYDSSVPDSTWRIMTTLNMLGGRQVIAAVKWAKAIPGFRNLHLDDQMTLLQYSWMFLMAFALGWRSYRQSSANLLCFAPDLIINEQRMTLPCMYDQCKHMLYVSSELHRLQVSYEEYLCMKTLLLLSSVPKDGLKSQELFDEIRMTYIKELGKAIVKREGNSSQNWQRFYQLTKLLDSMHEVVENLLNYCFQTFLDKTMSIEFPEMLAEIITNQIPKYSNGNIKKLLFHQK

[2] = system: patients with psychotic major depression; test: Double-blind placebo-controlled cross-over study of mifepristone in psychotic major depression; type: in vivo, human
Source text: The study requires a nine day, closely observed hospital stay. Individuals included in this study were diagnosed as psychotic depressives using criteria as set forth by the DSM-IV, as described above. This diagnosis was confirmed by two psychiatrists. All are between the ages of 18 and 75. Apart from hypercortisolemia, they have no major medical problems. They have no signs of Cushings Syndrome. No […] of childbearing potential are included in the study. Individuals admitting to having used illicit drugs within a month prior to admission for the study are excluded. Individuals admitting to drinking in excess of two ounces of alcohol daily are excluded from the study. No anti-psychotic medication was taken within three days of entering the study. While, concurrent anti-depressant was not a criteria used to excluded anyone from the study, no individual was started on an anti-depressant medication while participating in the study. All patients gave their written consent to a protocol approved by the Human Subjects Committee at Stanford University Medical Center. All participants were given the Hamilton Rating Scale for Depression (HAM-D, Hamilton (1962) J. Neurol. Psychiatry, supra, discussed above) and the Structured Clinical Interview for DSM-IV Axis I mood disorders tests (as described above). Only individuals with a score greater than 21 on the HAM-D test continued in the study (a HAM-D score of >21 indicates moderate to severe depression). […] Formal psychiatric assessment, including the HAM-D rating scale (Overall (1962) supra; Kaplan (1995), supra, discussed above), the Brief Psychiatric Rating Scale (BPRS) (Overall (1962) supra; Kaplan (1995), supra, discussed above) and the […] (GAF) evaluation (DSM-IV, supra, pages 30 to 31; Kaplan, ed. (1995), supra) was carried out on days one, three, five, seven and nine of the study at 10:00 AM (at 1000 hours). A paragraph recall test (see below) was given at 11:30 AM (at 1130 hours) on days one, five and nine. Cortisol levels were measured serially every half hour from […] to 4:00 PM (1300 to 1600 hours) on days one, five and nine. Plasma ACTH and Plasma HVA was measured serially every hour from 1300 to 1600 on days one, five and nine. Routine biological and hematological studies were conducted daily, particularly to screen for evidence of relative adrenal insufficiency, i.e., hypoglycemia, eosinophilia. One means used to assess/measure improvement, or amelioration of psychosis in the study was the “Wallach Recognition Test” (a paragraph recall test). Newly evaluated individuals with an initial diagnosis of psychotic major depression, diagnosed as described above, were given a recognition task adapted from Wallach (1980) supra. Subjects listened to a taped recording of a sixteen-word list presented at the rate of one word every ten seconds. The-subject repeats each of the sixteen words and is asked to think of what the words mean to them. Following the presentation of the list, the subject engages in a twenty minute motor distraction task. The subject then listens to a fifty-word list containing the sixteen original target words plus thirty-four background distraction words. The subject then is asked to discern between target words and distractors. Sixteen newly admitted patients with an admitting diagnosis of psychotic major depression confirmed by two psychiatrists were enrolled in the study. Each patient conformed with all of the above described criteria. […] In the patients administered mifepristone, three two hundred milligram tablets per day were given for four days. […] The tablets were manufactured by Shanghai HuaLian Pharmaceuticals Co., Ltd., Shanghai, China (currently the sole commercial source of RU486). Both patients and the investigators are “blind” as to which compound (test mifepristone or placebo) the patient received.

[3] = one study; cited from earlier work
[4] = system: patients with severe Cushing Syndrome; details: 400 to 800 mg per day; adrenal cancers and ectopic ACTH secretion from lung cancer; cited from earlier work
[5] = system: patients with chronic severe depression; details: about 2.5 to 4.4 mg/kg per day, up to eight weeks; four patients; cited from earlier work
[6] = biological target: T2, progesterone receptor (Homo sapiens, UniProt P06401); details: cited from earlier work
T2 sequence (P06401 1-933): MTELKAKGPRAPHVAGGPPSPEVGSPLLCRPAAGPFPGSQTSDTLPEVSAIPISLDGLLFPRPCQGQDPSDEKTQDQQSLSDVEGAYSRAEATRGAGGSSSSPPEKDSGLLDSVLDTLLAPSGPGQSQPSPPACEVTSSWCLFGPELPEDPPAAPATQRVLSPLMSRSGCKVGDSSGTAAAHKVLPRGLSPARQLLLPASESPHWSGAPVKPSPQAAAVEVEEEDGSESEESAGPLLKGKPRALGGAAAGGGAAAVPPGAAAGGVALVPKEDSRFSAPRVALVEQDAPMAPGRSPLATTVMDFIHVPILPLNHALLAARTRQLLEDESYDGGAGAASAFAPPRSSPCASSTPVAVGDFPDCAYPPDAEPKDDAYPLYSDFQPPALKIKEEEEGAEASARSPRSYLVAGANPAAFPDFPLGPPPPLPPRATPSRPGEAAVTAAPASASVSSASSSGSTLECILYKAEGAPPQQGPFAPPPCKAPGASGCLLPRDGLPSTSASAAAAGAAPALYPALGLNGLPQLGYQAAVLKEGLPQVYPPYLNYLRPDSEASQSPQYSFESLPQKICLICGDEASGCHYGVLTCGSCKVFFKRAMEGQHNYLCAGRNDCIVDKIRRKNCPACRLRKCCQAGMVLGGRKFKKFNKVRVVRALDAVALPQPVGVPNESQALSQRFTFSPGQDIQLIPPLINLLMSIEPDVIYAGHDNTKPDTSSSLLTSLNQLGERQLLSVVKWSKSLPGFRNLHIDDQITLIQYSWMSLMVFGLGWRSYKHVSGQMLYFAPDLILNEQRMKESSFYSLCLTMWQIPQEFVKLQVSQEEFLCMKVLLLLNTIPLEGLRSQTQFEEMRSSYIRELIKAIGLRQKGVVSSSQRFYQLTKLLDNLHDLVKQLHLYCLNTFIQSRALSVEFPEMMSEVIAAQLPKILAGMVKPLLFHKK

CC#C[C@]1(O)CC[C@H]2[C@@H]3CCC4=CC(=O)CCC4=C3[C@@H](c3ccc(OCCN(C)C)cc3)C[C@@]21C [RU009, 11-beta-(4 dimethyl-amninoethoxyphenyl)-17-alpha-(propynyl-17beta-hydroxy-4,9-estradien-3-one)]
GR antagonist activity [1]: GR antagonist effects

CC#C[C@]1(O)CC[C@H]2[C@@H]3CCC4=CC(=O)CCC4=C3[C@@H](c3ccc(N(C)C)cc3)C[C@@]21C [mifepristone, 17-beta-hydroxy-11-beta-(4-dimethyl-aminophenyl)-17-alpha-(1-propynyl)-estra-4,9-dien-3-one]
adverse effects reported by patient or observed by raters or staff ([2]; 600 mg per day orally, four days): no adverse effects
psychiatric condition ([2]; 600 mg per day orally, four days, three patients completed, blind not broken): significant improvement
Wallach Recognition Test: amelioration of psychosis ([2]; all individuals who received mifepristone): showed an amelioration of their psychosis
HAM-D score after treatment ([2]; average, score after decline): about 13.5
HAM-D score before treatment ([2]; average, starting score): about 26
Brief Psychiatric Rating Scale (BPRS) score after treatment ([2]; score after decline): about 29.5
Clinical Global Impression (CGI scale) score after treatment ([2]; score after drop, mildly depressed): about 3
Brief Psychiatric Rating Scale (BPRS) score before treatment ([2]; starting score): about 40.5
Clinical Global Impression (CGI scale) score before treatment ([2]; starting score, indicating markedly depressed): about 5
fraction of the daily dose excreted in the urine [3]: less than 0.5%
effect on acute psychosis [4]: useful in rapidly reversing acute psychosis
response to treatment [5]: responded to treatment
GR antagonist activity [1]: powerful antagonist
progesterone receptor antagonist activity [6]: powerful antagonist
